According to article PMC12016938, “A small molecule PKCε inhibitor reduces hyperalgesia induced by paclitaxel or opioid withdrawal” (JCI Insight, 2025):
Where “and” joins values, the source holds several entries; their conditions need not be identical. Equal entries are not always repeated. Structures can show the parent of a compound that is named as a salt.

System: self-administration (addictive potential)
Test: I.v. self-administration of CP612, between-session progressive ratio and demand curve
Experimental: We tested the addictive potential of CP612 by examining the extent to which rats are willing to work to obtain CP612. Rats were initially trained to self-administer either saline, morphine (500 μg/kg/i.v. infusion), or 1 of 3 different doses of CP612 (75, 150, or 300 μg/kg/i.v. infusion) for 4 days at fixed ratio 1 (FR1, where 1 nose poke delivers 1 infusion).
During the second phase, the ratio to obtain an infusion increased geometrically every other day (FR1, FR3, FR6, FR12, FR24, FR48, and FR96).
Data (number of self-infusions) were also fitted in an economic-demand curve, which provides an estimate of the motivation to obtain drugs and their addictive potential ([20]). We measured elasticity (α), which is the relative change in consumption as a function of price (i.e., ratio of nose pokes required to obtain an infusion). Behavior is considered “inelastic” when consumption is insensitive to price and “elastic” when consumption is sensitive to price. We also measured Pmax, which is the price at which intake switches from inelastic to elastic. […] (Figure 8B).
Rats not immediately anesthetized were eliminated from the study.
Following this initial acquisition phase at FR1, the ratio to obtain the drug was increased geometrically every other day: FR3 (3 nose pokes are required to obtain 1 infusion of morphine), FR6, FR12, FR24, FR48, and FR96. This allows for analysis of drug consumption as a function of “price” using demand curves for behavioral economics, which can estimate the motivation to obtain drugs and their “addictive potential” ([20]). For this, data from each rat were fitted to the equation log Q = log Q0 + k (e ^–α(Q0 ^C) – 1), where Q represents consumption (number of self-infusions), and Q0 represents the level of consumption at the lowest price. C represents price for the drug (i.e., the ratio), and k is set to a constant accounting for the estimated range of consumption in logarithmic units (k = 4 in these studies). The symbol α is the relative change in consumption across changes in price (ratio). Behavior is considered “inelastic” when consumption is insensitive to price (i.e., the curve is flat, and consumption is maintained despite increases in price), and it switches to “elastic” when consumption is sensitive to price (i.e., when the curve is steep and consumption declines with increases in price). […] We also compared groups for their average intake in the consumption-price curves by measuring α (elasticity) and Pmax.

[1] = morphine, individual rats, column in the AH block

CN1CC[C@]23c4c5ccc(O)c4O[C@H]2[C@@H](O)C=C[C@H]3[C@H]1C5 [Morphine, Morphine sulfate, reference compound]
AVG Latency (FR3) (morphine, individual rats): 0.17 and 0.173 and 1.3 and 0.2 and 0.6 and 1.9 | AVG Latency (FR6) (morphine, individual rats): 1.3 and 0.175 and 0.8 and 2.9 and 1.1 and 1.4 | AVG Latency (FR12) (morphine, individual rats): 0.435 and 0.663 and 0.7 and 0.227 and 2.8 and 2.7 | AVG Latency (FR24) (morphine, individual rats): 1.2 and 0.75 and 0.9 and 0.754 and 0.6 and 2.4 | AVG Latency (FR48) (morphine, individual rats): 0.8 and 0.428 and 0.738 and 0.951 and 1.0 | AVG Latency (FR96) (morphine, individual rats): 0.9 and 0.7 and 1.4 and 0.6 and 1.6 | D1 AH (FR1) (morphine, individual rats): 15 and 13 and 16 and 19 and 12 | D1 AH (FR3) (morphine, individual rats): 44 and 27 and 25 and 19 and 17 and 29 | D1 AH (FR6) (morphine, individual rats): 38 and 54 and 48 and 37 and 30 and 17 | D1 AH (FR12) (morphine, individual rats): 76 and 90 and 97 and 95 and 40 and 39 | D1 AH (FR24) (morphine, individual rats): 167 and 144 and 79 and 198 and 125 and 58 | D1 AH (FR48) (morphine, individual rats): 269 and 254 and 72 and 297 and 145 and 69 | D1 AH (FR96) (morphine, individual rats): 243 and 334 and 76 and 204 and 237 and 36 | D1 IH (FR1) (morphine, individual rats): 11 and 22 and 18 and 9 and 7 | D1 IH (FR3) (morphine, individual rats): 16 and 9 and 5 and 2 and 13 and 11 | D1 IH (FR6) (morphine, individual rats): 3 and 5 and 7 and 18 and 10 | D1 IH (FR12) (morphine, individual rats): 10 and 5 and 16 and 3 and 7 | D1 IH (FR24) (morphine, individual rats): 14 and 6 and 19 and 5 and 10 | D1 IH (FR48) (morphine, individual rats): 8 and 18 and 11 and 9 and 7 and 12 | D1 IH (FR96) (morphine, individual rats): 9 and 26 and 16 and 12 and 28 | D1 Inf (FR1) (morphine, individual rats): 9 and 8 and 12 and 10 | D1 Inf (FR3) (morphine, individual rats): 11 and 8 and 5 and 4 | D1 Inf (FR6) (morphine, individual rats): 6 and 7 and 4 and 2 | D1 Inf (FR12) (morphine, individual rats): 6 and 7 and 3 | D1 Inf (FR24) (morphine, individual rats): 6 and 5 and 3 and 8 and 4 and 2 | D1 Inf (FR48) (morphine, individual rats): 5 and 1 and 2 | D1 Inf (FR96) (morphine, individual rats): 2 and 3 and 0 | D1 Latency (FR1) (morphine, individual rats): 9.3 and 15.1 and 26.3 and 3.9 and 5.9 and 0.853 | D1 Latency (FR3) (morphine, individual rats): 0.238 and 0.2 and 1.5 and 0.9 and 0.358 | D1 Latency (FR6) (morphine, individual rats): 0.072 and 0.225 and 1.0 and 0.4 and 0.178 and 1.6 | D1 Latency (FR12) (morphine, individual rats): 0.038 and 1.0 and 0.6 and 0.032 and 1.6 and 1.2 | D1 Latency (FR24) (morphine, individual rats): 1.5 and 0.075 and 0.5 and 0.328 and 0.538 and 3.9 | D1 Latency (FR48) (morphine, individual rats): 0.107 and 0.4 and 0.5 and 1.0 and 1.4 and 1.2 | D1 Latency (FR96) (morphine, individual rats): 0.7 and 0.8 and 1.4 and 0.438 and 2.3 | D2 AH (FR1) (morphine, individual rats): 16 and 10 and 8 and 18 and 17 | D2 AH (FR3) (morphine, individual rats): 43 and 31 and 37 and 17 and 20 and 19 | D2 AH (FR6) (morphine, individual rats): 49 and 53 and 43 and 40 and 32 and 25 | D2 AH (FR12) (morphine, individual rats): 48 and 86 and 32 and 113 and 38 and 44 | D2 AH (FR24) (morphine, individual rats): 162 and 155 and 80 and 176 and 120 and 64 | D2 AH (FR48) (morphine, individual rats): 196 and 251 and 75 and 213 and 125 and 57 | D2 AH (FR96) (morphine, individual rats): 164 and 368 and 38 and 192 and 184 and 36 | D2 IH (FR1) (morphine, individual rats): 9 and 4 and 12 and 6 and 11 | D2 IH (FR3) (morphine, individual rats): 4 and 6 and 12 and 14 and 17 and 7 | D2 IH (FR6) (morphine, individual rats): 10 and 9 and 13 and 8 and 12 | D2 IH (FR12) (morphine, individual rats): 12 and 14 and 22 and 7 and 1 | D2 IH (FR24) (morphine, individual rats): 8 and 14 and 11 and 10 and 7 | D2 IH (FR48) (morphine, individual rats): 9 and 13 and 27 and 12 and 14 | D2 IH (FR96) (morphine, individual rats): 8 and 11 and 15 and 13 and 24 | D2 Inf (FR1) (morphine, individual rats): 11 and 9 and 7 and 10 and 12 | D2 Inf (FR3) (morphine, individual rats): 10 and 9 and 11 and 5 | D2 Inf (FR6) (morphine, individual rats): 8 and 7 and 6 and 4 | D2 Inf (FR12) (morphine, individual rats): 4 and 6 and 2 and 9 and 3 | D2 Inf (FR24) (morphine, individual rats): 6 and 3 and 7 and 4 and 2 | D2 Inf (FR48) (morphine, individual rats): 4 and 5 and 1 and 2 | D2 Inf (FR96) (morphine, individual rats): 1 and 3 and 0 | D2 Latency (FR1) (morphine, individual rats): 0.152 and 0.662 and 1.3 and 0.455 and 0.133 and 2.0 | D2 Latency (FR3) (morphine, individual rats): 0.1 and 0.137 and 1.1 and 0.19 and 0.327 and 3.5 | D2 Latency (FR6) (morphine, individual rats): 2.5 and 0.125 and 0.7 and 5.3 and 1.9 and 1.1 | D2 Latency (FR12) (morphine, individual rats): 0.8 and 0.372 and 0.7 and 0.422 and 4.1 | D2 Latency (FR24) (morphine, individual rats): 0.9 and 1.4 and 1.3 and 1.2 and 0.7 and 0.8 | D2 Latency (FR48) (morphine, individual rats): 1.4 and 0.457 and 1.0 and 0.9 and 0.543 and 0.367 | D2 Latency (FR96) (morphine, individual rats): 1.1 and 0.555 and 1.4 and 0.748 and 0.66 and 1.0 | D3 AH (FR1) (morphine, individual rats): 24 and 13 and 8 and 20 and 17 | D3 IH (FR1) (morphine, individual rats): 18 and 4 and 15 and 3 and 20 and 8 | D3 Inf (FR1) (morphine, individual rats): 10 and 7 and 14 | D3 Latency (FR1) (morphine, individual rats): 0.3 and 0.137 and 7.8 and 0.352 and 0.9 and 0.327 | D4 AH (FR1) (morphine, individual rats): 23 and 12 and 13 and 17 and 15 | D4 IH (FR1) (morphine, individual rats): 3 and 5 and 8 and 6 and 9 | D4 Inf (FR1) (morphine, individual rats): 13 and 10 and 11 and 9 and 8 | D4 Latency (FR1) (morphine, individual rats): 0.06 and 0.143 and 4.0 and 0.342 and 1.1 | last AH (FR1) (morphine, individual rats): 21 and 12 and 18 and 22 and 14 and 10 | last IH (FR1) (morphine, individual rats): 4 and 1 and 3 and 7 and 9 | last Inf (FR1) (morphine, individual rats): 15 and 10 and 12 and 17 and 9 and 7 | last Latency (FR1) (morphine, individual rats): 0.5 and 0.7 and 2.0 and 0.017 and 0.4 and 1.1 | last-1 AH (FR1) (morphine, individual rats): 23 and 12 and 13 and 17 and 15 | last-1 IH (FR1) (morphine, individual rats): 3 and 5 and 8 and 6 and 9 | last-1 Inf (FR1) (morphine, individual rats): 13 and 10 and 11 and 9 and 8 | last-1 Latency (FR1) (morphine, individual rats): 0.06 and 0.143 and 4.0 and 0.342 and 1.1 | last-2 AH (FR1) (morphine, individual rats): 24 and 13 and 8 and 20 and 17 | last-2 IH (FR1) (morphine, individual rats): 18 and 4 and 15 and 3 and 20 and 8 | last-2 Inf (FR1) (morphine, individual rats): 10 and 7 and 14 | last-2 Latency (FR1) (morphine, individual rats): 0.3 and 0.137 and 7.8 and 0.352 and 0.9 and 0.327 | last-3 AH (FR1) (morphine, individual rats): 24 and 13 and 8 and 18 and 10 and 17 | last-3 IH (FR1) (morphine, individual rats): 18 and 4 and 12 and 6 and 11 | last-3 Inf (FR1) (morphine, individual rats): 10 and 7 and 11 and 12 | last-3 Latency (FR1) (morphine, individual rats): 0.3 and 0.137 and 1.3 and 0.455 and 0.133 and 2.0 | AVG Inf (FR1_D1 to D4) [1]: 19.5 and 12.0 and 11.0 and 16.8 and 14.8 and 15.3 | AVG Inf (FR1_Last 2 FR1 days) [1]: 22.0 and 12.0 and 15.5 and 17.5 and 12.5 | AVG Inf (FR1_Last 4 FR1 days) [1]: 23.0 and 12.5 and 11.8 and 18.3 and 13.5 and 14.8 | AVG AH (FR3) (per-rat average): 24.0 and 20.5 and 23.0 | AVG AH (FR6) (per-rat average): 55.0 and 42.0 and 46.5 | AVG AH (FR12) (per-rat average): 107.5 and 82.0 and 88.0 | AVG AH (FR24) (per-rat average): 143.0 and 145.0 and 172.0 | AVG AH (FR48) (per-rat average): 138.0 and 149.0 and 142.5 | AVG AH (FR96) (per-rat average): 116.5 and 141.0 and 156.0 | AVG IH (FR1_Last 2 FR1 days) (per-rat average): 1.5 and 3.0 | AVG IH (FR6) (per-rat average): 4.5 and 8.5 and 7.5 | AVG IH (FR48) (per-rat average): 16.0 and 12.0 and 23.5 | AVG Inf (FR1_D1 to D4) (per-rat average): 6.0 and 7.3 and 9.3 | AVG Inf (FR1_Last 2 FR1 days) (per-rat average): 6.5 and 7.5 | AVG Inf (FR1_Last 4 FR1 days) (per-rat average): 6.0 and 7.0 and 8.3 | AVG Inf (FR3) (per-rat average): 7.5 and 5.5 and 7.0 | AVG Inf (FR6) (per-rat average): 8.0 and 6.5 and 7.0 | AVG Inf (FR12) (per-rat average): 8.5 and 5.5 and 6.5 | AVG Inf (FR24) (per-rat average): 5.0 and 5.5 and 6.5 | AVG Inf (FR48) (per-rat average): 2.5 | AVG Inf (FR96) (per-rat average): 1.0 | AVG Latency (FR1_D1 to D4) (per-rat average): 0.7 and 1.3 and 0.8 | AVG Latency (FR3) (per-rat average): 0.3 and 0.6 and 0.339 | AVG Latency (FR96) (per-rat average): 0.8 and 0.7 and 0.9
